{
  "source": "patent US20220088278A1",
  "about": "“Covered Stent For Local Drug Delivery” (BIOTRONIK AG, priority 2019, published 2022)",
  "origin": "cited, not measured here",
  "test_system": "main bile duct of pancreatic cancer patients",
  "settings": "thirty-six pancreatic cancer patients",
  "data": [
    {"smiles": "CC(=O)O[C@H]1C(=O)[C@@]2(C)[C@H]([C@H](OC(=O)c3ccccc3)[C@]3(O)C[C@H](OC(=O)[C@H](O)[C@@H](NC(=O)c4ccccc4)c4ccccc4)C(C)=C1C3(C)C)[C@]1(OC(C)=O)CO[C@@H]1C[C@@H]2O", "note": "[paclitaxel]", "values": [
      {"measurement": "duct patency duration versus covered stent without drug", "value": "did not significantly differ"}
    ]}
  ]
}
